Source: patent publication US20240336606A1 (Suzhou Zelgen Biopharmaceuticals Co., Ltd., priority 2020, published 2024)

Tests used:
[1] = biological target: T1, binding of KRAS^G12C to SOS1 (Homo sapiens, UniProt Q07889); assay: Inhibition of the binding of KRAS^G12C to SOS1; conditions: Tag1-SOS1 / Tag2-KRAS^G12C, 2 h incubation at room temperature; read-out: IC50 (nM), inhibitory activity on the binding of KRAS^G12C to SOS1
T1 construct: Tag1 (unspecified)
T1 sequence (Q07889 1-1333): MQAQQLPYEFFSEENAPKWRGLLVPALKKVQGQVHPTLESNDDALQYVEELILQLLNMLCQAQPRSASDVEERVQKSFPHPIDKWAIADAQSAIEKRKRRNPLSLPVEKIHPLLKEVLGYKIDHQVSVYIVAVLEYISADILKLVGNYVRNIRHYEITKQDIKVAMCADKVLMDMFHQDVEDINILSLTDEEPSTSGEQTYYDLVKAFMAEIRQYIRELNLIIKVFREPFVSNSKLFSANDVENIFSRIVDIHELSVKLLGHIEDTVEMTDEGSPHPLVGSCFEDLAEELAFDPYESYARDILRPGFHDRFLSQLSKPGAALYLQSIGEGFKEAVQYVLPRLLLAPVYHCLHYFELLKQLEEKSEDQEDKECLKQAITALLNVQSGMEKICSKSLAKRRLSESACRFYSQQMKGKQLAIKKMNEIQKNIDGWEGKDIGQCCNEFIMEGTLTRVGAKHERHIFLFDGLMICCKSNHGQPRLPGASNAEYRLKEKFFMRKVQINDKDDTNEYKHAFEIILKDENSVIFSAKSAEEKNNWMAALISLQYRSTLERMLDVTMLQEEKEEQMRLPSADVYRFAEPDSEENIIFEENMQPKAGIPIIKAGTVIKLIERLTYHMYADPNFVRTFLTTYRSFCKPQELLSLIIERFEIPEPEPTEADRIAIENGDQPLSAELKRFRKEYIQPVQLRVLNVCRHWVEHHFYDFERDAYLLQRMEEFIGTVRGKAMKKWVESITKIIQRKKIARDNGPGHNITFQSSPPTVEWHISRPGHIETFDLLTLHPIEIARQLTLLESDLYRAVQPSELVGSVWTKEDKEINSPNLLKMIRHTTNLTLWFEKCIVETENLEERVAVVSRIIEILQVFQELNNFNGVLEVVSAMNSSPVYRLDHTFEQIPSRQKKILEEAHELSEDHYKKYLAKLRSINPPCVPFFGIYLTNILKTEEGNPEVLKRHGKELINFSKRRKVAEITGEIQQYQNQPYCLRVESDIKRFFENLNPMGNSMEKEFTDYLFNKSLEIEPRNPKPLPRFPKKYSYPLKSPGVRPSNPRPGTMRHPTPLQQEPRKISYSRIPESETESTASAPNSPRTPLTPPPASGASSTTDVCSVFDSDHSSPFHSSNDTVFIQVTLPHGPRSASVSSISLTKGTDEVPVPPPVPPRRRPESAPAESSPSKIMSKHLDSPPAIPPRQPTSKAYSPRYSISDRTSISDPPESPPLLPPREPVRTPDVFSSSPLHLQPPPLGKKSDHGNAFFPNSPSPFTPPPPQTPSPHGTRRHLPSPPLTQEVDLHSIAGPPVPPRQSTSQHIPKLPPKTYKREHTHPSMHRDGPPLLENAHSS
Outline: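 Tag1-SOS1 and Tag2-KRAS^G12C mixed with serially diluted compound (final 0.25% DMSO), then anti-Tag1-Tb3+ and anti-Tag2-XL665 added for 2 h at room temperature. IC50 from curve fit of the TR-FRET signal.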

H358 cells = assay: Inhibition of H358 cell proliferation (CellTiter-Glo 3D, 7 days); assay type: cell-based; conditions: Homo sapiens, 168 h, NCI-H358, 7 days, read-out: IC50 (nM), inhibitory activity on H358 cell proliferation
Method: • (a) The cells were thawed in T75 cell culture flasks:
• (b) When 80-90% cell confluence was achieved, the cells were passaged.
The diluted test compounds were added to a 384-well cell culture plate using a nanoliter pipetting system, and duplicate wells were set. An equal volume of medium was added to the positive control group; an equal volume of DMSO was added to the negative control group. The plate was centrifuged at 1000 rpm at room temperature for 1 min.
The cells were inoculated into a) 384-well culture plate, an equal volume of cells was added to the negative control group, and only an equal volume of medium was added to the positive control group. The plate was centrifuged at 1000 rpm at room temperature for 1 min. The final concentration of DMSO in the final compounds was 0.5%. The plate was incubated in a thermostatic incubator at 37° C. with 5% CO2 for 7 days.
CellTiter-Glo® 3D was added to b) 384-well cell culture plate at 20 μL/well. The plate was shaken at 320 rpm in the dark for 20 min, and incubated at room temperature in the dark for 2 h. The luminescence values were read using an Envision multi-mode microplate reader.
The inhibition rates of the compounds at different concentrations were calculated in Excel, and then inhibition curves were plotted and relevant parameters including minimum inhibition rate, maximum inhibition rate and IC50 were calculated using GraphPad Prism software.

MIA PaCa-2 tumor cells = assay: Anti-tumor pharmacodynamic evaluation, MIA PaCa-2 subcutaneous xenograft; assay type: in vivo; conditions: MIA PaCa-2 in nude mice
Method: 100 μL of a suspension containing 5×10^6 MIA PaCa-2 tumor cells was subcutaneously inoculated into the right posterior abdomens of nude mice. The health of the mice was monitored daily, and measurements were started when tumors grew to be palpable. The tumor volume was calculated as follows: 0.5×L×W^2, where L and W represent the length and width of the tumor, respectively. When the tumors grew to about 100 mm^3, the mice were randomized into groups. The mice were intragastrically administered a corresponding dose (50 mg/kg) of compound suspension in CMC-Na twice daily, and their general states were monitored at the same time. The tumors were measured 3 times a week, and the body weight was measured twice a week.

[2] = Day 21, 50 mg/kg intragastric twice daily

| SMILES | IC50 [1] [nM] | IC50 (H358 cells) [nM] | TV (mm^3) (tumor volume) Day 0 (MIA PaCa-2 tumor cells; Day 0 (at grouping), 50 mg/kg intragastric twice daily) | % TGI (tumor growth inhibition) (MIA PaCa-2 tumor cells; [2]) [%] | TV (mm^3) (tumor volume) Day 21 (MIA PaCa-2 tumor cells; [2]) |
| --- | --- | --- | --- | --- | --- |
| COc1cc2nc(C)nc(N[C@H](C)c3cc(N)cc(C(F)(F)F)c3)c2cc1OCCOC1COC1 [Example 44, (R)—N-(1-(3-Amino-5-(trifluoromethyl)phenyl)ethyl)-7-methoxy-2-methyl-6-(2-(oxetan-3-yloxy)ethoxy)quinazolin-4-amine] | 4.4 | 25 | – | – | – |
| COCCOc1cc2c(N[C@H](C)c3cccc(C(F)(F)C(C)(C)O)c3F)nc(C)nc2cc1OC [Example 72, (R)-1,1-Difluoro-1-(2-fluoro-3-(1-((7-methoxy-6-(2-methoxyethoxy)-2-methylquinazolin-4-yl)amino)ethyl)phenyl)-2-methylpropan-2-ol] | 3.2 | 16.6 | 103 | 84.9 | 175 |
| COCCOc1cc2c(N[C@H](C)c3cc(N)cc(C(F)(F)C(C)(C)O)c3)nc(C)nc2cc1OC [Example 74] | 3.1 | 6.5 | – | – | – |
| COCCOc1cc2c(N[C@H](C)c3cc(C(F)(F)C(C)(C)O)ccc3F)nc(C)nc2cc1OC [Example 79, (R)-1,1-Difluoro-1-(4-fluoro-3-(1-((7-methoxy-6-(2-methoxyethoxy)-2-methylquinazolin-4-yl)amino)ethyl)phenyl)-2-methylpropan-2-ol] | 19 | 419 | – | – | – |
| COCCOc1cc2c(N[C@H](C)c3cc(F)cc(C(F)(F)C(C)(C)O)c3)nc(C)nc2cc1OC [Example 80, (R)-1,1-Difluoro-1-(3-fluoro-5-(1-((7-methoxy-6-(2-methoxyethoxy)-2-methylquinazolin-4-yl)amino)ethyl)phenyl)-2-methylpropan-2-ol] | 6.2 | 53 | – | – | – |
| COc1cc2nc(C)nc(N[C@H](C)c3cc(N)cc(C(F)(F)F)c3)c2cc1OCCOC1CC1(F)F (stereo partly drawn) [Example 82, N—((R)-1-(3-Amino-5-(trifluoromethyl)phenyl)ethyl)-6-(2-(2,2-difluorocyclopropyloxy)ethoxy)-7-methoxy-2-methylquinazolin-4-amine] | 4.5 | 33 | – | – | – |
| COCCOc1cc2c(N[C@H](C)c3cc(N)cc(OC(F)(F)F)c3)nc(C)nc2cc1OC [Example 83, (R)—N-(1-(3-Amino-5-(trifluoromethoxy)phenyl)ethyl)-7-methoxy-6-(2-methoxyethoxy)-2-methylquinazolin-4-amine] | 15 | 187 | – | – | – |
| COCCOc1cc2c(N[C@H](C)c3cccc(C(F)(F)CO)c3)nc(C)nc2cc1OC [Example 85] | 4.1 | 39 | – | – | – |
| COCCOc1cc2nc(C)nc(N[C@H](C)c3cccc(C(F)(F)C(C)(C)O)c3F)c2cc1OCCOC [Example 86, (R)-1-(3-(1-((6,7-Bis(2-methoxyethoxy)-2-methylquinazolin-4-yl)amino)ethyl)-2-fluorophenyl)-1,1-difluoro-2-methylpropan-2-ol] | 4.4 | 11.8 | – | – | – |
| COCCOc1cc2c(N[C@H](C)c3cccc(C(F)(F)C(C)(C)O)c3F)nc(C)nc2cc1C#N [Example 89, (R)-4-((1-(3-(1,1-Difluoro-2-hydroxy-2-methylpropyl)-2-fluorophenyl)ethyl)amino)-6-(2-methoxyethoxy)-2-methylquinazoline-7-carbonitrile] | 6.7 | 130 | – | – | – |
| C#Cc1cc2nc(C)nc(N[C@H](C)c3cccc(C(F)(F)C(C)(C)O)c3F)c2cc1OCCOC1COC1 [Example 157, (R)-1-(3-(1-((7-Ethynyl-2-methyl-6-(2-(oxetan-3-yloxy)ethoxy)quinazolin-4-yl)amino)ethyl)-2-fluorophenyl)-1,1-difluoro-2-methylpropan-2-ol] | – | 15.8 | – | – | – |
| C#Cc1cc2nc(C)nc(N[C@H](C)c3cc(N)cc(C(F)(F)C(C)(C)O)c3)c2cc1OCCOC [Example 163, (R)-1-(3-Amino-5-(1-((7-ethynyl-6-(2-methoxyethoxy)-2-methylquinazolin-4-yl)amino)ethyl)phenyl)-1,1-difluoro-2-methylpropan-2-ol] | – | 14.5 | – | – | – |
